Assay results: the NIST ThermoML archive (doi:10.1016/j.tca.2017.09.023)
Several values for one entry are separate records, joined by “and”; a condition that tells them apart may be missing. Equal values may be shown once. Numbers after ± are expanded uncertainties.

What was measured:
[1] = Molar enthalpy of transition or fusion; conditions: DSC
[2] = for Normal melting temperature: DTA; for Triple point temperature: DSC

| SMILES | Molar enthalpy of transition or fusion ([1]; Crystal 2) | Molar enthalpy of transition or fusion ([1]; Crystal) | Normal melting temperature ([2]; Crystal 1) | Triple point temperature ([2]; Crystal 2) | Normal melting temperature ([2]; Crystal) | Molar enthalpy of transition or fusion ([1]; Crystal 3) | Triple point temperature ([2]; Crystal 3) |
| --- | --- | --- | --- | --- | --- | --- | --- |
| Cc1c(C)c(C)c(Br)c(C)c1C [bromopentamethylbenzene] | 1.03 ± 0.335 kcal/mol | 3.61 ± 0.359 kcal/mol | 163.0 ± 1.1 °C | 411.6 ± 1.2 K |  |  |  |
| Clc1c(Cl)c(Cl)c(Cl)c(Cl)c1Cl [hexachlorobenzene] |  | 5.72 ± 0.311 kcal/mol |  |  | 230.1 ± 2 °C and 231 ± 1.1 °C |  |  |
| Cc1c(C)c(C)c(C)c(C)c1C [hexamethylbenzene] | 0.399 ± 0.335 kcal/mol | 4.91 ± 0.359 kcal/mol | 166.1 ± 1.1 °C and 167.5 ± 2 °C | 384.9 ± 1.2 K |  | 0.136 ± 0.335 kcal/mol | 117.4 ± 1.2 K |
| c1ccc(-c2ccccc2-c2ccccc2)cc1 [o-terphenyl] |  |  |  |  | 57.2 ± 2 °C |  |  |
| Nc1c(Cl)c(Cl)c(Cl)c(Cl)c1Cl [pentachlorobenzenamine] |  | 4.42 ± 0.311 kcal/mol |  |  | 235.4 ± 1.1 °C |  |  |
